In patent US20260193285A1, “GRAMINE-PLATINUM (IV) COMPLEX AS WELL AS PREPARATION METHOD THEREFOR AND ANTI-TUMOR USE THEREOF” (TIANJIN MEDICAL UNIVERSITY CANCER INSTITUTE & HOSPITAL, priority 2022, published 2026):
Values joined by “and” are separate entries in the source; they are usually repeats but may differ in a detail not shown here. Equal entries are not always repeated.

What was measured:
KPC tumor model = assay: In vivo anti-tumor activity, pancreatic cancer KPC model; conditions: for final survival rate: dead includes body weight decrease of more than 20%; for tumor inhibition rate at the treatment endpoint: Pt 3.0 mg/kg once every 3 days, five times; for PD-1 level in tumors (flow cytometry): solvent control 15.7%
Method: Firstly, a KPC tumor model was established using C57BL/6 female mice 4-5 weeks old. […] The drugs were formulated at a Pt concentration of 3.0 mg/kg, once every 3 days and five times in total, while the body weight and tumor volume of the mice were measured every 3 days. The mice were sacrificed and the organs (heart, liver, spleen, lung, kidney) and tumors thereof were excised. The tumors were used for flow cytometry to determine the content of immune cells.

4T1-Luc tumor model = assay: In vivo anti-tumor activity, breast cancer 4T1-Luc tumor model; conditions: for final survival rate: dead includes body weight decrease of more than 20%
Method: Firstly, a 4T1-Luc tumor model was established using Balb/c female mice 4-5 weeks old. After the tumor volume reached […], the mice were randomly divided into four groups, namely Solvent, Cisplatin, Cisplatin+Gramine, and Compound c groups, respectively. The drugs were formulated at a Pt concentration of 2.0 mg/kg, once every 3 days and six times in total, while the body weight and tumor volume of the mice were measured every 2 days. The mice were sacrificed and the organs (heart, liver, spleen, lung, kidney) and tumors thereof were excised. The organs and tumors were used for H&E staining, immunohistochemical staining, and ICP-MS determination of platinum content.

[1] = tested on: Patient-derived xenografts (PDXs) of pancreatic cancer; assay: In vivo anti-tumor activity, pancreatic cancer PDX model; conditions: for final survival rate: dead includes body weight decrease of more than 20%; for tumor inhibition rate at the treatment endpoint: Pt 3.0 mg/kg once every 3 days, five times
Method: Patient-derived xenografts (PDXs) were used. Fresh tumor tissue from a patient was treated and transplanted subcutaneously into the groin of immunodeficient NOD-SCID IL-2 receptor gamma null (NSG) mice. […] The successfully transplanted tumor was passaged for 3 passages or more in NSG mice to obtain mouse models for experiments. […] The drugs were formulated at a Pt concentration of 3.0 mg/kg, once every 3 days and five times in total, while the body weight and tumor volume of the mice were measured every 3 days. The mice were sacrificed and the organs (heart, liver, spleen, lung, kidney) and tumors thereof were excised. The organs and tumors were used for ICP-MS determination of platinum content.

[2] = tested on: MCF-7 (human breast cancer cells); assay: In vitro anti-tumor activity assay (MTT), MCF-7; format: cell-based; conditions: average of multiple measurements
Excerpt: (§1) In this assay, the anti-tumor activity of the synthesized compounds was studied by MTT (3-(4,5-dimethylthiazolyl-2)-2,5-diphenyltetrazolium bromide) method. Eight kinds of cancer cells including MDA-MB-231 (human breast cancer cells), MCF-7 (human breast cancer cells), HCT-116 (human colon cancer cells), HeLa (human cervical cancer cells), FaDu (human pharyngeal squamous carcinoma cells), 5637 (human bladder cancer cells), OVCAR3 (human ovarian cancer cells), HCCC9810 (human liver cancer cells) and one normal human cell line LO2 (human liver cells) were used in this assay to perform experimental research on cytotoxicity. All cell lines were cultured in an incubator with 5% CO2 and saturated humidity at 37° C. The specific experimental steps were as follows:
(§2) The cells in logarithmic growth phase were collected, counted, adjusted to a cell concentration of 3× 10^4 cells/mL, and then seeded into a 96-well plate at 100 μL/well. The blank group (Blank, pure medium group) and the control group (Control, no drug group) were set up. The plate was cultured overnight in a cell culture incubator. After adhesion, the compounds were diluted with culture medium and added to the first column of administration wells at a desired concentration for these wells, followed by the 2-fold serial dilution and administration in subsequent wells, and pipetted gently to mix well. After incubation for 72 hours, 10 μL of MTT solution (5 mg/mL) was added to each well. After cultivation in the incubator for another 4 hours, the supernatant was removed, and DMSO was added at 100 μL/well. After shaking thoroughly, the OD value was measured using a microplate-reader at […]. Three independently repeated experiments were carried out to ensure the reliability of the experimental results.

LO2 (human liver cells) = assay: Cytotoxicity (MTT) on normal cell line LO2; format: cell-based; conditions: 72 hours
Excerpt: as §1, §2

[3] = tested on: HeLa (human cervical cancer cells); assay: In vitro anti-tumor activity assay (MTT), HeLa; format: cell-based; conditions: 72 hours, average of multiple measurements
Excerpt: as §1, §2

[4] = tested on: MDA-MB-231 (human breast cancer cells); assay: In vitro anti-tumor activity assay (MTT), MDA-MB-231; format: cell-based; conditions: for IC50: 72 hours, MTT, average of multiple measurements
Excerpt: as §1, §2

[5] = tested on: HCT-116 (human colon cancer cells); assay: In vitro anti-tumor activity assay (MTT), HCT-116; format: cell-based; conditions: average of multiple measurements
Excerpt: as §1, §2

[6] = tested on: pancreatic cancer cells BxPC-3; assay: CCK-8 inhibition of pancreatic cancer cells, BxPC-3; format: cell-based; conditions: CCK-8, 72 hours
Method: (§3) In this experiment, CCK-8 was used to study the proliferation activity of pancreatic cancer cells SU86.86, MIA-PaCa2, SW1990, CFPAC-1 and BxPC-3. All cell lines were cultured in an incubator with 5% CO2 and saturated humidity at 37° C. The experimental steps were as follows:
(§4) The cells in logarithmic growth phase were collected, counted, adjusted to a cell concentration of 3×10^4 cells/mL, and then seeded into a 96-well plate at 100 μL/well. The blank group (Blank, medium group without cells) and the control group (Control, medium group with cells) were set up. After the cells in the culture plate were cultured overnight in the incubator with saturated humidity at 37° C. and adhered, the compounds were diluted with culture medium and added to the first column of administration wells at a desired concentration for these wells, followed by the 2-fold serial dilution and administration at 18 concentrations in total, and pipetted gently to mix well. After incubation for 72 hours, 10 μL of CCK8 solution (5 mg/mL) was added to each well. After cultivation in the incubator for another 4 hours, the OD value was measured using a microplate-reader at λ=450 nm.

[7] = tested on: pancreatic cancer cells CFPAC-1; assay: CCK-8 inhibition of pancreatic cancer cells, CFPAC-1; format: cell-based; conditions: CCK-8, 72 hours
Method: as §3, §4

[8] = tested on: pancreatic cancer cells SU86.86; assay: CCK-8 inhibition of pancreatic cancer cells, SU86.86; format: cell-based; conditions: CCK-8, 72 hours
Method: as §3, §4

[9] = tested on: pancreatic cancer organoids from patients; assay: In vitro organoid activity assay, pancreatic cancer; format: cell-based, human; conditions: 96 hours, CellTiter-Glo 3D, one value per case; read-out: IC50 in organoid models of 2 cases of pancreatic cancer
Method: (§5) The experimental steps were as follows:
(§6) Tumor samples were obtained from the patients undergoing surgery for breast cancer and pancreatic cancer, and digested with tumor dissociation kits. Tumor suspensions were collected and centrifuged to obtain tumor organoids. Complete culture medium for breast cancer or pancreatic cancer organoids was added to the organoid models which were cultured and passaged under the culture conditions of 5% CO2 and saturated humidity at 37° C. The organoids in logarithmic growth phase were collected, counted, resuspended in Matrigel at an organoid concentration of 5×10^4 cells/mL, and then seeded into a 96-well plate at 20 μL/well, followed by further addition of 80 μL of complete medium. The blank group (Blank, medium group without organoids) and the control group (Control, medium group with organoids) were set up. After the organoids were cultured overnight in an incubator with 5% CO2 at 37° C. and adhered, 200 μL of the culture medium containing the drug at a concentration of 20 μM was added to the first administration well, followed by the 2-fold serial dilution and administration, and pipetted gently to mix well. After incubation for 96 hours, representative photos were taken for each well using an inverted microscope, and 10 μL of CellTiter-Glo 3D Reagent (Promega) solution was added to each well to detect the organoid viability.

[10] = tested on: pancreatic cancer cells SW1990; assay: CCK-8 inhibition of pancreatic cancer cells, SW1990; format: cell-based; conditions: CCK-8, 72 hours
Method: as §3, §4

[11] = tested on: pancreatic cancer cells MIA-PaCa2; assay: CCK-8 inhibition of pancreatic cancer cells, MIA-PaCa2; format: cell-based; conditions: CCK-8, 72 hours
Method: as §3, §4

[12] = tested on: breast cancer organoids from patients; assay: In vitro organoid activity assay, breast cancer; format: cell-based, human; conditions: 96 hours, CellTiter-Glo 3D, one value per case; read-out: IC50 in organoid models of 2 cases of breast cancer
Method: as §5, §6

[13] = tested on: FaDu (human pharyngeal squamous carcinoma cells); assay: In vitro anti-tumor activity assay (MTT), FaDu; format: cell-based; conditions: 72 hours, average of multiple measurements
Excerpt: as §1
(§7) The cells in logarithmic growth phase were collected, counted, adjusted to a cell concentration of 3× 10^4 cells/mL, and then seeded into a 96-well plate at 100 μL/well. The blank group (Blank, pure medium group) and the control group (Control, no drug group) were set up. The plate was cultured overnight in a cell culture incubator. […] After shaking thoroughly, the OD value was measured using a microplate-reader at 2=570 nm. […]

[14] = tested on: 5637 (human bladder cancer cells); assay: In vitro anti-tumor activity assay (MTT), 5637; format: cell-based; conditions: 72 hours, average of multiple measurements
Excerpt: as §1, §7

[15] = tested on: OVCAR3 (human ovarian cancer cells); assay: In vitro anti-tumor activity assay (MTT), OVCAR3; format: cell-based; conditions: 72 hours, average of multiple measurements, read-out: IC50 OVCRA3
Excerpt: as §1, §7

[16] = tested on: HCCC9810 (human liver cancer cells); assay: In vitro anti-tumor activity assay (MTT), HCCC9810; format: cell-based; conditions: 72 hours, average of multiple measurements, read-out: IC50 HCCC 9810
Excerpt: as §1, §7

[17] = pancreatic cancer KPC, Pt 3.0 mg/kg
[18] = 4T1-Luc, Pt 2.0 mg/kg once every 3 days, six times
[19] = pancreatic cancer PDX, Pt 3.0 mg/kg

| Compound | final survival rate (KPC tumor model; [17]) | H&E staining: damage to tumor tissues (4T1-Luc tumor model; 4T1-Luc, Pt 2.0 mg/kg) | final survival rate (4T1-Luc tumor model; 4T1-Luc, Pt 2.0 mg/kg) [%] | final survival rate [1, 19] [%] | IC50 (LO2 (human liver cells)) [µM] | IC50 ([2]; 72 hours) [µM] | tumor inhibition rate at the treatment endpoint (KPC tumor model; pancreatic cancer KPC) [%] | PD-1 level in tumors (flow cytometry) (KPC tumor model; [17]) [%] | IC50 [3] [µM] | IC50 [4] [µM] | IC50 [6] [µM] | IC50 ([5]; 72 hours) [µM] | IC50 [7] [µM] | IC50 [8] [µM] | IC50 [10] [µM] | IC50 [11] [µM] | body weight change of mice [1, 19] | tumor inhibition rate at the treatment endpoint ([1]; pancreatic cancer PDX) [%] | further results |
| --- | --- | --- | --- | --- | --- | --- | --- | --- | --- | --- | --- | --- | --- | --- | --- | --- | --- | --- | --- |
| CCCCCCCCCCCCNC(=O)[O][Pt]([NH2])([NH2])([Cl])([Cl])[O]C(=O)CCC(=O)n1cc(CN(C)C)c2ccccc21 [Compound c] | 100% | severe damage to tumor tissues | 100 | 100 |  |  |  |  |  |  |  |  |  |  |  |  |  |  | body weight change of mice (KPC tumor model; mouse, in vivo): substantially stable body weight; immunohistochemical staining of mouse spleens (CD4+, CD8+, Foxp3 Treg cells) (4T1-Luc tumor model; 4T1-Luc, Pt 2.0 mg/kg): increasing the number of CD4+ and CD8+ cells, while decreasing the number of Treg cells; tumor growth (tumor volume, tumor weight) (4T1-Luc tumor model; [18]): significantly inhibited tumor growth; platinum accumulation in tissues (ICP-MS) (4T1-Luc tumor model; mouse, in vivo): significantly decreased the accumulation in the kidney and spleen; body weight change of mice ([1]; mouse, in vivo): weight recovery and stability from Day 9 post-treatment; platinum accumulation in tissues (ICP-MS) ([1]; mouse, in vivo): significantly decreased the accumulation in the kidney and spleen |
| CN(C)Cc1c[nH]c2ccccc12 [GM, gramine] |  |  |  |  | > 100 |  |  |  |  |  |  |  |  |  |  |  |  |  | IC50 ([2]; Homo sapiens, MCF7, 72 hours): > 100 µM; IC50 ([3]; Homo sapiens, HeLa): > 100 µM; IC50 ([4]; Homo sapiens, MDA-MB-231): > 100 µM; IC50 ([5]; Homo sapiens, HCT-116, 72 hours): > 100 µM |
| O=C1[O][Pt]2([NH][C@@H]3CCCC[C@H]3[NH]2)[O]C1=O [OXP, oxaliplatin] |  |  |  | 60 | 27.2 | 17.5 | 64.76 | 21.0 | 14.6 | 28.2 | 1.37 | 9.98 | 200 | 8.02 | 2.8 | 2 | significant decline all the time | 68.82 | IC50 [9]: 12.7 µM and > 20 µM |
| cisplatin [CDDP] | all died finally | severe damage to tumor tissues | 16.67 | 40 | 3.99 | 5.9 | 55.67 | 24.3 | 4.94 | 15.8 | 420 | 8.79 | 603 | 127 | 500 | 500 | significant decline all the time | 32.68 | IC50 [12]: > 20 µM; IC50 [13]: 1.57 µM; body weight change of mice (KPC tumor model; [17]): more significant decline; selectivity index IC50 (LO2)/IC50 (MDA-MB-231) ([4]; tumor cell line MDA-MB-231 versus normal cell line LO2): 0.25; IC50 [14]: 1.35 µM; IC50 [15]: 1.93 µM; IC50 [16]: 5.55 µM; H&E staining: damage to mouse organs (4T1-Luc tumor model; 4T1-Luc, Pt 2.0 mg/kg): severe damage to the spleen, kidney, and liver; body weight change of mice (4T1-Luc tumor model; [18]): significant decline |
